Measured values as given in PMC6366404, “4-(3-Nitrophenyl)thiazol-2-ylhydrazone derivatives as antioxidants and selective hMAO-B inhibitors: synthesis, biological activity and computational analysis” (Journal of Enzyme Inhibition and Medicinal Chemistry, 2019).

Tests used:
[1] = molecular target: T1, hMAO-B (Homo sapiens, UniProt P27338); assay: Reversibility of MAO-B inhibition by dialysis; type: biochemical
T1 sequence (P27338 1-520): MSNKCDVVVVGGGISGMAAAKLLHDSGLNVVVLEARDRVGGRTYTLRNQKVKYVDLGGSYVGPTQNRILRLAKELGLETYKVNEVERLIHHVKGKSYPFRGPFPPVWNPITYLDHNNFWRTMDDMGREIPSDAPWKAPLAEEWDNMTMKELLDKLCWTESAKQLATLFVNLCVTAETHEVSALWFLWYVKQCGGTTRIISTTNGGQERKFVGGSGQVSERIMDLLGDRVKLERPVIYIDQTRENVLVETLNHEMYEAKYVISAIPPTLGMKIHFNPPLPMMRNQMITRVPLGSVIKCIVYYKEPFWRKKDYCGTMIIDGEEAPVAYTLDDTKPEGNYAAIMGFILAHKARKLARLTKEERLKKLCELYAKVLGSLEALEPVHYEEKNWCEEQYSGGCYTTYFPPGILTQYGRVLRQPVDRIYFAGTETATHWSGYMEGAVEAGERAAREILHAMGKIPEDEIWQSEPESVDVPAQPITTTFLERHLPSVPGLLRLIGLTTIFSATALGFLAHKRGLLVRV
Method: Stock solutions of the test compounds were prepared in DMSO and added to the incubations to yield 4% DMSO. The samples were dialyzed for 24 h at 4 °C in 80 ml of dialysis buffer using Slide-A-Lyzer® dialysis cassettes (Thermo Scientific) with a molecular weight cut-off of 10,000 and a sample volume capacity of 0.5–3 ml. The dialysis buffer was replaced at 3 and 7 h after the start of dialysis. Following dialysis, the dialysis samples were diluted twofold with the addition of kynuramine to yield a kynuramine concentration and inhibitor concentration of 50 µM and 2 × IC50, respectively. The reactions (500 µL) were incubated for 20 min at 37 °C and terminated with NaOH (400 μL, 2 N) and water (1000 µL). The fluorescence of 4-hydroxyquinoline in these samples was measured as described for the IC50 determination above. […] Undialysed mixtures of MAO-B and the test inhibitors were maintained at 4 °C for 24 h and diluted and assayed as above. All reactions were carried out in triplicate and the residual enzyme catalytic rates are expressed as mean ± SD.
Reversibility of MAO inhibition is an important factor to consider when evaluating the inhibition properties of potential inhibitors. Irreversible MAO inhibitors, particularly of the MAO-A isoform, are associated with dangerous adverse effects such as the cheese reaction, which occurs when irreversible MAO-A inhibitors are taken with tyramine-rich food[51]. […] The samples were diluted twofold and the residual MAO-B activity was measured. For reversible inhibition, dialysis is expected to reverse inhibition by the test inhibitors and restore enzyme activity to the level of the negative control. […] A final experiment consisted of incubations containing MAO-B and tested inhibitors which were not dialyzed, but maintained for 24 h.

[2] = Metal chelating activity on ferrous ions; conditions: ferrozine
[3] = molecular target: T1, hMAO-B; assay: Lineweaver-Burk plots, mode of inhibition and Ki; type: biochemical
Method: To construct Lineweaver–Burk plots, the enzyme reactions were carried out to a volume of 500 µL and the concentration of MAO-B was 0.015 mg protein/mL. All enzyme reactions and activity measurements were carried out as described above for the dialysis experiments. The first plot was constructed in the absence of inhibitor, while the remaining five plots were constructed in the presence of the following concentrations: ¼ × IC50, ½ × IC50, ¾ × IC50, 1 × IC50 and 1¼ × IC50. For each line, kynuramine was used at concentrations of 15–250 μM. The Ki value was estimated from a plot of the slopes of the Lineweaver–Burk plots versus inhibitor concentration (x-axis intercept equals –Ki).
To provide further support for the reversibility of MAO-B inhibition by compounds 4 and 37, a set of Lineweaver–Burk plots was constructed for each inhibitor at the following inhibitor concentrations: ¼ × IC50, ½ × IC50, ¾ × IC50, 1 × IC50, and 1¼ × IC50. The substrate, kynuramine, was used at 15–250 µM for each line. […] The lines of the plots intersect on the y-axis and a replot of the slopes versus inhibitor concentration yields a linear line, from which the enzyme-inhibitor dissociation constant (Ki) was estimated (Ki = −x-axis intercept).

[4] = Cupric ion reducing activity (CUPRAC)
[5] = ABTS radical cation scavenging activity

## CC(=NNc1nc(-c2cccc([N+](=O)[O-])c2)cs1)c1cccs1 [Compound 4, 1-(4-(3-Nitrophenyl)thiazol-2-yl)-2-(1-(thiophen-2-yl)ethylidene)hydrazine]
[1]; dialysis 24 h
  Reversibility of MAO-B inhibition: partially reversible
[1]; inhibitor at 4 × IC50, not dialyzed, maintained 24 h
  Residual MAO-B activity, undialysed mixtures: 33%
[1]; inhibitor at 4 × IC50, preincubated 15 min, dialyzed 24 h, relative to negative control
  Residual MAO-B activity after dialysis: 61%
[2]
  IC50: > 5000 µM
[3]
  Ki: 0.0026 µM
[3]; Lineweaver-Burk plots
  Mode of MAO-B inhibition: competitive
[4]
  EC50: 520 ± 20 µM
[5]
  IC50: 1040 ± 10 µM
